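Interpolation was linear, between the two tested concentrations surrounding the appropriate level; five concentrations were tested over 48 hours in 96-well plates. The concentration for full growth arrest is given as TGI.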
Columns and labels:
Test in all cases: growth of human tumour cells (NCI), 48 h
CCRF-CEM leukemia = test system: CCRF-CEM leukemia
MDA-N = test system: MDA-N
SNB-19 CNS = test system: SNB-19 CNS
SW-620 colon = test system: SW-620 colon
NCI-H226 lung = test system: NCI-H226 lung
NCI-H23 lung = test system: NCI-H23 lung
KM12 colon = test system: KM12 colon
786-0 renal = test system: 786-0 renal
UACC-257 melanoma = test system: UACC-257 melanoma
OVCAR-8 ovarian = test system: OVCAR-8 ovarian
DU-145 prostate = test system: DU-145 prostate
MCF7 breast = test system: MCF7 breast
SN12C renal = test system: SN12C renal
HOP-62 NSCLC = test system: HOP-62 NSCLC
SF-295 CNS = test system: SF-295 CNS
RXF 393 renal = test system: RXF 393 renal
SNB-75 CNS = test system: SNB-75 CNS
HCT-116 colon = test system: HCT-116 colon
K-562 leukemia = test system: K-562 leukemia
OVCAR-5 ovarian = test system: OVCAR-5 ovarian
HOP-92 NSCLC = test system: HOP-92 NSCLC
RPMI-8226 leukemia = test system: RPMI-8226 leukemia
SF-268 CNS = test system: SF-268 CNS
BT-549 breast = test system: BT-549 breast
A549 NSCLC = test system: A549 NSCLC
HCT-15 colon = test system: HCT-15 colon
T-47D breast = test system: T-47D breast
A498 renal = test system: A498 renal
IGROV1 ovarian = test system: IGROV1 ovarian
ACHN renal = test system: ACHN renal
NCI-H460 lung = test system: NCI-H460 lung
MOLT-4 leukemia = test system: MOLT-4 leukemia
SK-MEL-2 melanoma = test system: SK-MEL-2 melanoma
U251 CNS = test system: U251 CNS
NCI/ADR-RES ovarian = test system: NCI/ADR-RES ovarian
CAKI-1 renal = test system: CAKI-1 renal
UACC-62 melanoma = test system: UACC-62 melanoma
MDA-MB-435 = test system: MDA-MB-435
M14 melanoma = test system: M14 melanoma
COLO 205 colon = test system: COLO 205 colon
OVCAR-4 ovarian = test system: OVCAR-4 ovarian
HS 578T breast = test system: HS 578T breast
SK-MEL-5 melanoma = test system: SK-MEL-5 melanoma
SK-MEL-28 melanoma = test system: SK-MEL-28 melanoma
TK-10 renal = test system: TK-10 renal
SK-OV-3 ovarian = test system: SK-OV-3 ovarian
SR leukemia = test system: SR leukemia
HT29 colon = test system: HT29 colon
SF-539 CNS = test system: SF-539 CNS
EKVX NSCLC = test system: EKVX NSCLC
MDA-MB-231 breast = test system: MDA-MB-231 breast
PC-3 prostate = test system: PC-3 prostate
LOX IMVI melanoma = test system: LOX IMVI melanoma
MALME-3M melanoma = test system: MALME-3M melanoma
OVCAR-3 ovarian = test system: OVCAR-3 ovarian
NCI-H522 lung = test system: NCI-H522 lung
HCC-2998 colon = test system: HCC-2998 colon
HL-60(TB) leukemia = test system: HL-60(TB) leukemia
UO-31 renal = test system: UO-31 renal

Measured: TGI

NC(Cc1nn[nH]n1)C(=O)O (configuration not stated)
not listed: HCC-2998 colon | HL-60(TB) leukemia | UO-31 renal
> 100 µM: all other assays above

O=C1C/C(=C\O)C(=O)c2ccccc2N1
not listed: SW-620 colon | SNB-75 CNS | RPMI-8226 leukemia
> 100 µM: all other assays above
